pIC50: −log10 of the molar value. Read-outs that look alike come from different tables or passages of the source.
What was measured:
Assay type in all cases: cell-based
PANC1 = test: IC50 in cell lines (Table 4), PANC1; conditions: Homo sapiens, PANC-1
Experimental: (§1) Various compounds, including (R)-H4CBD and (S)-H4CBD, and H4CBDV racemic mixture, were tested for cell killing against various cancer cell lines, including PANC-1, HPAF-II, AsPC-1, and MIA-PaCa2.
(§2) Table 4 summarizes the measured IC50 for specific compounds in the indicated cell types.

MIA-PaCa2 = test: IC50 in cell lines (Table 4), MIA-PaCa2; conditions: Homo sapiens, MIA PaCa-2
Experimental: as §1, §2

[1] = test system: A549 Lung Carcinoma Epithelial Cells (CCL-185 from ATCC); test: Percent viability of lung carcinoma cells; conditions: for cell viability, comparison in words (figure legends): FIGS. 39, 42, 43; for viability at 1.56 µM / viability at 3.12 µM / viability at 6.25 µM / viability at 12.5 µM / viability at 25 µM / viability at 50 µM: Homo sapiens
Experimental: GR-X1=H4CBDV, GR-X2=(R)-H4CBD, GR-X3=(S)-H4CBD, GR-X4=HHC.
The IC50 of the hydrogenated cannabivarin, hexahydrocannabidivarin (H4CBDV), (R)-H4CBD, (S)-H4CBD, HHC racemic mixture, and gemcitabine, paclitaxel, and 5-fluorouracil were determined in lung carcinoma cells (A549 Lung Carcinoma Epithelial Cells (CCL-185 from ATCC)) as shown in FIGS. 39-43 and Table 3.

hERG = hERG (Homo sapiens, UniProt Q12809); test: hERG assay
Experimental: (§3) At 50 μM, 74.8% of human fibroblasts died and 8% of hepatocytes.

Ames test = test: Ames test
human fibroblasts = test: Cytotoxicity in human fibroblasts
Experimental: as §3

hepatocytes = test: Cytotoxicity in hepatocytes; conditions: at 50 μM
Experimental: as §3

PANC-1 = test: CellTiterGlo cell viability, PANC-1 cells; conditions: Homo sapiens, 72 h
Experimental: (§4) The IC50 values for (R)-H4CBD, (S)-H4CBD, H4CBDV racemic mixture, and bortezomib were determined. Compound treatment of cells started one day after seeding with a final DMSO concentration of 0.1% and was performed by nanodrop-dispensing using a Tecan Dispenser. 0.1% DMSO (solvent) and Staurosporine (1,0E-05M) served as high control (100% viability) and low control (0% viability), respectively. For the assays, cells were seeded in white cell culture-treated flat and clear bottom multiwell plates and incubated at 37° C. overnight before compounds were added. After incubation for 72 h at 37° C. at 5% or 10% CO2 dependent on the medium, cell plates were equilibrated to room temperature for one hour, CellTiterGlo reagent (Promega) was added and luminescence was measured approximately an hour later using a luminometer.
(§5) Raw data were converted into percent cell viability relative to the high and low control, which were set to 100% and 0%, respectively. IC50 calculation was performed using GraphPad Prism software with a variable slope sigmoidal response fitting model using 0% viability as bottom constraint and 100% viability as top constraint. IC50 results in PANC-1, MIA-PaCa2, and AsPC-1 cells for (R)-H4CBD, (S)-H4CBD, H4CBDV racemic mixture, and bortezomib are shown in FIGS. 10-12 and Table 2

MiaPaCA-2 = test: CellTiterGlo cell viability, MiaPaCA-2 cells; conditions: Homo sapiens, MIA PaCa-2, 72 h
Experimental: as §4, §5

AsPC-1 [2] = test: CellTiterGlo cell viability, AsPC-1 cells; conditions: Homo sapiens, ASPC1, 72 h
Experimental: as §4, §5

AsPC-1 [3] = test: IC50 in cell lines (Table 4), AsPC-1; conditions: Homo sapiens, ASPC1
Experimental: as §1, §2

HPAFII = test: IC50 in cell lines (Table 4), HPAFII; conditions: Homo sapiens, HPAF-II
Experimental: as §1, §2

[4] = A549, read-out: Percent viability of cells, Mean (%)
[5] = A549, agent concentration 1.56 uM, read-out: Percent viability of cells, Mean (%)
[6] = A549, agent concentration 3.12 uM, read-out: Percent viability of cells, Mean (%)
[7] = A549, agent concentration 6.25 uM, read-out: Percent viability of cells, Mean (%)
[8] = A549, agent concentration 12.5 uM, read-out: Percent viability of cells, Mean (%)
[9] = A549, agent concentration 25 uM, read-out: Percent viability of cells, Mean (%)
[10] = A549, agent concentration 50 uM, read-out: Percent viability of cells, Mean (%)

Sequence of hERG (Q12809 whole entry): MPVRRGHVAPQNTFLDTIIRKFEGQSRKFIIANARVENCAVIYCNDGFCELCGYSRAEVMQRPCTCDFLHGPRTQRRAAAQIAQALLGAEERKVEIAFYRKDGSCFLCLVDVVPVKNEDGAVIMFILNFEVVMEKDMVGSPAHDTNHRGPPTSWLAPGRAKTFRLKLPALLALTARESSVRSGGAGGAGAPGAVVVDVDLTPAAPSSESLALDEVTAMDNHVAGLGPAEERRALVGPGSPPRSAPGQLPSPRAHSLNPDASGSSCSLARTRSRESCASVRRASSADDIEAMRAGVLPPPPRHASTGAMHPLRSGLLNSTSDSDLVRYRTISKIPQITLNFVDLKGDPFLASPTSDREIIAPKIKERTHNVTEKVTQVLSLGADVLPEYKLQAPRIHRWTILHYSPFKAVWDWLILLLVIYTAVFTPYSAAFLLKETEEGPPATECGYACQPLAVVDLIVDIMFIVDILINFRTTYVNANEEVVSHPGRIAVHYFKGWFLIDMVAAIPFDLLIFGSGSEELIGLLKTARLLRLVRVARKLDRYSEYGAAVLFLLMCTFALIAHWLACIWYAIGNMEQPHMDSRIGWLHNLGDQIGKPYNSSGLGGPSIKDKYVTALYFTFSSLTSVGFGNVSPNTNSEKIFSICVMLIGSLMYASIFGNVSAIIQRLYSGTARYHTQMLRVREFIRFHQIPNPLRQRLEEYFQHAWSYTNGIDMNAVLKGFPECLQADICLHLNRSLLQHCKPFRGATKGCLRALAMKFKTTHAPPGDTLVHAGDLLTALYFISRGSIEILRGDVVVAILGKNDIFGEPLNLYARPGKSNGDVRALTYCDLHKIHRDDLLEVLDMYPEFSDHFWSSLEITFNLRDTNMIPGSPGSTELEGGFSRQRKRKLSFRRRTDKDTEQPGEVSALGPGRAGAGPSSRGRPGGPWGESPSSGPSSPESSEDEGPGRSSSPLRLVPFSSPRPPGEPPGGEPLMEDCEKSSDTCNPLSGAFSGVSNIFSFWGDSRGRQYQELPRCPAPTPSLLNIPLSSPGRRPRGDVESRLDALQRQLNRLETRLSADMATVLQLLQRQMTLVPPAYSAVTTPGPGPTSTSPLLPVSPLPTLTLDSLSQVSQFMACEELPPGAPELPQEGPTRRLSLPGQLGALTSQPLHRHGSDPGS

CCCc1cc(O)c2c(c1)OC(C)(C)C1CCC(C)CC21 (racemic) [CCL-103, HHCV]
IC50 (PANC1): 0.00507 mM
IC50 (MIA-PaCa2): 0.0197 mM

CCCCCCCc1cc(O)c(C2CC(C)CCC2C(C)C)c(O)c1 (racemic) [CCL-105, H4CBDP]
IC50 (PANC1): 0.00255 mM
IC50 (MIA-PaCa2): 0.0061 mM

CCCCCc1cc(O)c2c(c1)OC(C)(C)C1CCC(C)CC21 (racemic) [CCL-113, hexahydrocannabinol]
cell viability, comparison in words (figure legends) [1]: the only compound that presented higher cell viability from 25 μM
viability at 1.56 µM [1, 4]: 92.5%
viability at 3.12 µM [1, 4]: 92.9%
viability at 6.25 µM [1, 4]: 95.6%
viability at 12.5 µM [1, 4]: 96.1%
viability at 25 µM [1, 4]: 81.6%
viability at 50 µM [1, 4]: 22.1%
cytotoxicity in hERG assay (hERG): did not show cytotoxicity
cytotoxicity in Ames test (Ames test): did not show cytotoxicity
pIC50 (human fibroblasts; Homo sapiens, Fibroblast): 4.84
human fibroblasts died (human fibroblasts; at 50 μM): 74.8%
hepatocytes died (hepatocytes): 8%

O=c1[nH]cc(F)c(=O)[nH]1 [5-fluorouracil, reference compound]
cell viability, comparison in words (figure legends) [1]: presented the best cell viability when compared to the other two drugs, gemcitabine and paclitaxel

CC(C)C[C@H](NC(=O)[C@H](Cc1ccccc1)NC(=O)c1cnccn1)B(O)O [Bortezomib, reference compound]
IC50 (PANC-1): 0.0134 µM
IC50 (MiaPaCA-2): 0.0149 µM
IC50 (AsPC-1 [2]): 0.0334 µM

CCCCCc1cc(O)c2c(c1)OC(C)(C)C1CC[C@@H](C)CC21 (stereo partly drawn) [CCL-101, 9R-Hexahydrocannabinol]
IC50 (PANC1): 0.00908 mM
IC50 (AsPC-1 [3]): 0.0166 mM
IC50 (MIA-PaCa2): 0.0127 mM
IC50 (HPAFII): 0.00884 mM

CCCCCc1cc(O)c2c(c1)OC(C)(C)C1CC[C@H](C)CC21 (stereo partly drawn) [CCL-102, 9S-Hexahydrocannabinol]
IC50 (PANC1): 0.0172 mM
IC50 (AsPC-1 [3]): 0.0115 mM
IC50 (MIA-PaCa2): 0.0272 mM
IC50 (HPAFII): 0.00702 mM

CCCCCc1cc(O)c(C2C[C@H](C)CCC2C(C)C)c(O)c1 (stereo partly drawn) [CCL-111, (R)-H4CBD]
IC50 (PANC-1): 5.29 µM
IC50 (MiaPaCA-2): 3.24 µM
IC50 (AsPC-1 [2]): 4.85 µM

CCCCCc1cc(O)c(C2C[C@@H](C)CCC2C(C)C)c(O)c1 (stereo partly drawn) [CCL-112, (S)-H4CBD]
IC50 (PANC-1): 8.02 µM
IC50 (MiaPaCA-2): 4.77 µM
IC50 (AsPC-1 [2]): 6.17 µM

CCCCCc1cc(O)c(C2C[C@H](C)CCC2C(C)C)c(O)c1 (some centres unmarked) [R- H4CBDV]
viability at 1.56 µM [1, 5]: 92.3%
viability at 3.12 µM [1, 6]: 86.7%
viability at 6.25 µM [1, 7]: 86%
viability at 12.5 µM [1, 8]: 45%
viability at 25 µM [1, 9]: 14%
viability at 50 µM [1, 10]: 4.18%

CCCCCc1cc(O)c(C2C[C@@H](C)CCC2C(C)C)c(O)c1 (some centres unmarked) [S- H4CBDV]
viability at 1.56 µM [1, 5]: 94.2%
viability at 3.12 µM [1, 6]: 99.6%
viability at 6.25 µM [1, 7]: 94.1%
viability at 12.5 µM [1, 8]: 81.3%
viability at 25 µM [1, 9]: 13.8%
viability at 50 µM [1, 10]: 1.53%

CC(=O)O[C@H]1C(=O)[C@@]2(C)[C@H]([C@H](OC(=O)c3ccccc3)[C@]3(O)C[C@H](OC(=O)[C@H](O)[C@@H](NC(=O)c4ccccc4)c4ccccc4)C(C)=C1C3(C)C)[C@]1(OC(C)=O)CO[C@@H]1C[C@@H]2O [paclitaxel, reference compound]
cell viability, comparison in words (figure legends) [1]: higher cytotoxicity at a lower concentration than 5-flurouracil
